Results from patent publication US20240325521A1, “IONIZABLE LIPID COMPOUND FOR NUCLEIC ACID DELIVERY AND LNP COMPOSITION THEREOF” (priority 2021, published 2024).

Experiments:
[1] = 25° C., up to 4 weeks; compared with cationic lipids III and IV
[2] = Detection of novel coronavirus LNP-mRNA vaccine after encapsulation with different cationic lipids (encapsulation efficiency, particle size, PDI, Zeta potential); format: physicochemical; details: compared with control cationic lipids III and IV
Hep3B cells = format: cell-based; details: compared with cationic lipids III and IV

Structure (SMILES) | stability of LNP-mRNAs prepared by the cationic lipid [1] | encapsulation effect on mRNA antigen [2] | in-vitro transfection efficiency (Hep3B cells)
CCCCCCCCC(CCCCCC)COC(=O)OCCCCCCN(CCCCO)CCCCCCOC(=O)OCC(CCCCCC)CCCCCCCC (stereo not drawn) [Compound 1] | better | better encapsulation effect | better
CCCCCCCCCCCOC(=O)OCCCCCN(CCO)CCCCCCCOC(=O)OC(CCCCCCCC)CCCCCCCC [Compound 2] | better | better encapsulation effect | better
